Patent US12569509B2, “Method and composition for preventing and treating viral infections” (priority 2017, dated 2026)
Several values for one entry are separate records, joined by “and”; a condition that tells them apart may be missing. Identical values can stand only once.

Legend:
[1] = test system: human PBMC; assay: LPS concentration optimization, cytokine release in human PBMC (Phase 1); type: cell-based; conditions: for IL-2 Mean Concentration in supernatant / IFN-g Mean Concentration in supernatant: Donors 1-3; for IL-2 Mean Concentration in supernatant: LLOQ = 2.387 pg/mL; for IFN-g Mean Concentration in supernatant: LLOQ = 2.872 pg/mL; for IL-1β Mean Concentration in supernatant / IL-6 Mean Concentration in supernatant / TNF-α Mean Concentration in supernatant: individual Donors 1-3
[2] = test system: human PBMC; assay: LPS stimulated cytokine secretion in human PBMC pretreated with compounds (Phase 2); type: cell-based; conditions: LPS alone, 1 ng/mL, 8-hour stimulation; for IL-2 concentration in supernatant: LLOQ = 1.698 pg/mL; for TNF-α concentration in supernatant: LLOQ = 2.018 pg/mL; for IL-1β concentration in supernatant: LLOQ = 2.299 pg/mL; for IFN-g concentration in supernatant: LLOQ = 2.792 pg/mL; for IL-6 concentration in supernatant: LLOQ = 0.831
Description: Results are represented as fold-change relative to LPS treatment alone for each cytokine calculated by means from 3 separate donors.
RPMI medium alone, RPMI supplemented with 0.2% DMSO (to mimic treatment conditions) or LPS stimulation alone were used as controls.
Except for the two negative control conditions, all 3 donors responded to all experimental conditions tested with the secretion of TNF-α, IL-1β, and IL-6 albeit with a high degree of variability.

Lipopolysaccharide [LPS]
Secretion of IL-1b, IL-6 and TNF-α ([1]; 1 ng/mL LPS, after 8 hours): robust secretion
Secretion of IL-2 or IFN-g ([1]; 1 ng/mL LPS, after 8 hours): No secretion
IL-2 Mean Concentration in supernatant ([1]; LPS 1 ng/mL, 8-hour): <LLOQ
IFN-g Mean Concentration in supernatant ([1]; LPS 1 ng/mL, 8-hour): <LLOQ
IL-1β Mean Concentration in supernatant ([1]; LPS 1 ng/mL, 8-hour): 403.43 pg/mL and 575.75 pg/mL and 1756.56 pg/mL (2×)
IL-6 Mean Concentration in supernatant ([1]; LPS 1 ng/mL, 8-hour): 64.83 pg/mL and 659.3 pg/mL and 1103.64 pg/mL (2×)
TNF-α Mean Concentration in supernatant ([1]; LPS 1 ng/mL, 8-hour): 670.9 pg/mL and 817.83 pg/mL and 1149.23 pg/mL (2×)
IL-2 Mean Concentration in supernatant ([1]; LPS 1 ng/mL, 24-hour): <LLOQ
IFN-g Mean Concentration in supernatant ([1]; LPS 1 ng/mL, 24-hour): <LLOQ
IL-1β Mean Concentration in supernatant ([1]; LPS 1 ng/mL, 24-hour): 923.42 pg/mL and 1164.43 pg/mL and 2396.79 pg/mL
IL-6 Mean Concentration in supernatant ([1]; LPS 1 ng/mL, 24-hour): 1284.85 pg/mL and 1269.72 pg/mL and 1897.32 pg/mL
TNF-α Mean Concentration in supernatant ([1]; LPS 1 ng/mL, 24-hour): 1768.29 pg/mL and 2299.94 pg/mL and 2108.58 pg/mL
IL-2 Mean Concentration in supernatant ([1]; LPS 10 ng/mL, 8-hour): <LLOQ
IFN-g Mean Concentration in supernatant ([1]; LPS 10 ng/mL, 8-hour): <LLOQ
IL-1β Mean Concentration in supernatant ([1]; LPS 10 ng/mL, 8-hour): 404.91 pg/mL and 879.72 pg/mL and 1768.06 pg/mL
IL-6 Mean Concentration in supernatant ([1]; LPS 10 ng/mL, 8-hour): 192.2 pg/mL and 830.13 pg/mL and 1084.03 pg/mL
TNF-α Mean Concentration in supernatant ([1]; LPS 10 ng/mL, 8-hour): 912.13 pg/mL and 955.81 pg/mL and 1113.95 pg/mL
IL-2 Mean Concentration in supernatant ([1]; LPS 10 ng/mL, 24-hour): <LLOQ
IFN-g Mean Concentration in supernatant ([1]; LPS 10 ng/mL, 24-hour): <LLOQ
IL-1β Mean Concentration in supernatant ([1]; LPS 10 ng/mL, 24-hour): 986.68 pg/mL and 1038.39 pg/mL and 2391.98 pg/mL
IL-6 Mean Concentration in supernatant ([1]; LPS 10 ng/mL, 24-hour): 1393.01 pg/mL and 1167.49 pg/mL and 2016.76 pg/mL
TNF-α Mean Concentration in supernatant ([1]; LPS 10 ng/mL, 24-hour): 2316.87 pg/mL and 1605.58 pg/mL and 2139.91 pg/mL
IL-2 Mean Concentration in supernatant ([1]; LPS 50 ng/mL, 8-hour): <LLOQ
IFN-g Mean Concentration in supernatant ([1]; LPS 50 ng/mL, 8-hour): <LLOQ
IL-1β Mean Concentration in supernatant ([1]; LPS 50 ng/mL, 8-hour): 327.69 pg/mL and 1002.11 pg/mL and 1751.4 pg/mL
IL-6 Mean Concentration in supernatant ([1]; LPS 50 ng/mL, 8-hour): 75.24 pg/mL and 880.71 pg/mL and 1096.09 pg/mL
TNF-α Mean Concentration in supernatant ([1]; LPS 50 ng/mL, 8-hour): 511.42 pg/mL and 1143.84 pg/mL and 1051.41 pg/mL
IL-2 Mean Concentration in supernatant ([1]; LPS 50 ng/mL, 24-hour): <LLOQ
IFN-g Mean Concentration in supernatant ([1]; LPS 50 ng/mL, 24-hour): <LLOQ
IL-1β Mean Concentration in supernatant ([1]; LPS 50 ng/mL, 24-hour): 899.92 pg/mL and 1170.32 pg/mL and 2216.54 pg/mL
IL-6 Mean Concentration in supernatant ([1]; LPS 50 ng/mL, 24-hour): 1317.99 pg/mL and 1333.24 pg/mL and 1966.58 pg/mL
TNF-α Mean Concentration in supernatant ([1]; LPS 50 ng/mL, 24-hour): 1680.24 pg/mL and 1378.24 pg/mL and 1954.44 pg/mL
IL-2 Mean Concentration in supernatant ([1]; LPS 100 ng/mL, 8-hour): <LLOQ
IFN-g Mean Concentration in supernatant ([1]; LPS 100 ng/mL, 8-hour): <LLOQ
IL-1β Mean Concentration in supernatant ([1]; LPS 100 ng/mL, 8-hour): 298.82 pg/mL and 873.62 pg/mL and 1222.41 pg/mL
IL-6 Mean Concentration in supernatant ([1]; LPS 100 ng/mL, 8-hour): 37.62 pg/mL and 820.5 pg/mL and 817.27 pg/mL
TNF-α Mean Concentration in supernatant ([1]; LPS 100 ng/mL, 8-hour): 386.41 pg/mL and 1313.93 pg/mL and 868.83 pg/mL
IL-2 Mean Concentration in supernatant ([1]; LPS 100 ng/mL, 24-hour): <LLOQ
IFN-g Mean Concentration in supernatant ([1]; LPS 100 ng/mL, 24-hour): <LLOQ
IL-1β Mean Concentration in supernatant ([1]; LPS 100 ng/mL, 24-hour): 913.95 pg/mL and 1182.07 pg/mL and 2282.4 pg/mL
IL-6 Mean Concentration in supernatant ([1]; LPS 100 ng/mL, 24-hour): 1390.38 pg/mL and 1243.06 pg/mL and 2083.25 pg/mL
TNF-α Mean Concentration in supernatant ([1]; LPS 100 ng/mL, 24-hour): 1792.89 pg/mL and 1332.65 pg/mL and 2343.08 pg/mL
IL-2 Mean Concentration in supernatant ([1]; LPS 1000 ng/mL, 8-hour): <LLOQ
IFN-g Mean Concentration in supernatant ([1]; LPS 1000 ng/mL, 8-hour): <LLOQ
IL-1β Mean Concentration in supernatant ([1]; LPS 1000 ng/mL, 8-hour): 1008.83 pg/mL and 1979.93 pg/mL and 441.01 pg/mL
IL-6 Mean Concentration in supernatant ([1]; LPS 1000 ng/mL, 8-hour): 895.76 pg/mL and 1251.62 pg/mL and 166.25 pg/mL
TNF-α Mean Concentration in supernatant ([1]; LPS 1000 ng/mL, 8-hour): 1276.06 pg/mL and 1481.27 pg/mL and 498.68 pg/mL
IFN-g Mean Concentration in supernatant ([1]; LPS 1000 ng/mL, 24-hour): <LLOQ
IL-1β Mean Concentration in supernatant ([1]; LPS 1000 ng/mL, 24-hour): 1145.77 pg/mL and 2192.5 pg/mL and 799.96 pg/mL
IL-6 Mean Concentration in supernatant ([1]; LPS 1000 ng/mL, 24-hour): 1519.68 pg/mL and 2426.8 pg/mL and 1363.37 pg/mL
TNF-α Mean Concentration in supernatant ([1]; LPS 1000 ng/mL, 24-hour): 2286.74 pg/mL and 3069.72 pg/mL and 1675.83 pg/mL
Production of TNF-α, IL-1β, and IL-6 ([1]; LPS ≥1 ng/mL, 8 and 24 hours, all donors): robust production
IL-2 concentration in supernatant ([2]; Donor 1): <LLOQ
TNF-α concentration in supernatant ([2]; Donor 1): 1417.82 pg/mL
IL-1β concentration in supernatant ([2]; Donor 1): 2362.87 pg/mL
IFN-g concentration in supernatant ([2]; Donor 1): <LLOQ
IL-6 concentration in supernatant ([2]; Donor 1): 863.49 pg/mL
IL-2 concentration in supernatant ([2]; Donor 2): <LLOQ
TNF-α concentration in supernatant ([2]; Donor 2): 1375.72 pg/mL
IL-1β concentration in supernatant ([2]; Donor 2): 2485.92 pg/mL
IFN-g concentration in supernatant ([2]; Donor 2): <LLOQ
IL-6 concentration in supernatant ([2]; Donor 2): 760.26 pg/mL
IL-2 concentration in supernatant ([2]; Donor 3): <LLOQ
TNF-α concentration in supernatant ([2]; Donor 3): 4449.11 pg/mL
IL-1β concentration in supernatant ([2]; Donor 3): 3881.34 pg/mL
IFN-g concentration in supernatant ([2]; Donor 3): <LLOQ
IL-6 concentration in supernatant ([2]; Donor 3): 760.26 pg/mL
